Biological target: T1, lysozyme (LYS) (Gallus gallus, UniProt P00698)
T1 construct: gene LYZ; commercial lysozyme, Sigma-Aldrich, >=18,000 U; single chain of 129 residues; docking model PDB 1GWD
Assay: intrinsic fluorescence quenching titration
Type: binding
Settings: 298 K; Tris-HCl pH 7.43; excitation 282 nm; inner-filter corrected; double-log
Description: intrinsic fluorescence quenching titration on lysozyme (LYS)

T1 sequence (P00698 19-147): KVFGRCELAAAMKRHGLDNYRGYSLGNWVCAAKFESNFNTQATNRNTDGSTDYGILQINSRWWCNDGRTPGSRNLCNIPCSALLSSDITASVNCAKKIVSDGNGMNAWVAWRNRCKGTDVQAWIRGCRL

K: 393000 L/mol
SMILES: O=C(O)c1cc(O)c(O)c(O)c1 [GA, 3,4,5-trihydroxybenzoic acid]
